Calls of active or inactive are those of the source.

From ChEMBL document CHEMBL1201862, “PubChem BioAssay data set” (2004) come the findings set out here.

For assay [1], the target named is T1, Sentrin-specific protease 6 (Homo sapiens, UniProt Q9GZR1).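 Further: Luminescence-based dose-response confirmatory assay of SENP6 inhibition, following up an ultra-high-throughput screen.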
T1 sequence (Q9GZR1 whole entry): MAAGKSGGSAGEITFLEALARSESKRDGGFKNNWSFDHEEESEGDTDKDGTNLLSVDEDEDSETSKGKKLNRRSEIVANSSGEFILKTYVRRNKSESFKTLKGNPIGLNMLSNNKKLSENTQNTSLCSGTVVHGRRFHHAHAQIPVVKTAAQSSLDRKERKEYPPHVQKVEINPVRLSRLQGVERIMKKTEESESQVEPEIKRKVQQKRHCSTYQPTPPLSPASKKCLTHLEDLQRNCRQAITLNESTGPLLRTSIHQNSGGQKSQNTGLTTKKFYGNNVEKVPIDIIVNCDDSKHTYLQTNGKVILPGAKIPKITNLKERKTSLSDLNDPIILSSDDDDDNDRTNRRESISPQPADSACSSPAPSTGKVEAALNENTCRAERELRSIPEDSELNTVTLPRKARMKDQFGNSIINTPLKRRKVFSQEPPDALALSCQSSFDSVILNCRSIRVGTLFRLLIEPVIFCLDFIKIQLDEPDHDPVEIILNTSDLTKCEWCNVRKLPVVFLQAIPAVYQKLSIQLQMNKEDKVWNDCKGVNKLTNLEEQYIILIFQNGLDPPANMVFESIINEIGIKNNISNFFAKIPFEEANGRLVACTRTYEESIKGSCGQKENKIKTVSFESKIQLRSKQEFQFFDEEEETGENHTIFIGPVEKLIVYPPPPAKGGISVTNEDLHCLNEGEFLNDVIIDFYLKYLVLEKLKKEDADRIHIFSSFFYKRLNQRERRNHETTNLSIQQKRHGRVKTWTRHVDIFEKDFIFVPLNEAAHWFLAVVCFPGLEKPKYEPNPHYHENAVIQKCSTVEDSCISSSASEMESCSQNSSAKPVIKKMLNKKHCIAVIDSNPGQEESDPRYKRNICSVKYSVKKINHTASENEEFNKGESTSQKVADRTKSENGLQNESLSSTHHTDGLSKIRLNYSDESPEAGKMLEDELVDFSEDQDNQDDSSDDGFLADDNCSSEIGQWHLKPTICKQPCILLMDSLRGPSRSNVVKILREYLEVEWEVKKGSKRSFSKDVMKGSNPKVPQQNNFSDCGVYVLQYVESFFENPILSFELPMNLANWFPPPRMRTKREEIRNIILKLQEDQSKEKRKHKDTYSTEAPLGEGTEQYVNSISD
It counts as functional.

The target of assay [2] is T2, Mannose-6-phosphate isomerase (Homo sapiens, UniProt P34949).
T2 sequence (P34949 whole entry): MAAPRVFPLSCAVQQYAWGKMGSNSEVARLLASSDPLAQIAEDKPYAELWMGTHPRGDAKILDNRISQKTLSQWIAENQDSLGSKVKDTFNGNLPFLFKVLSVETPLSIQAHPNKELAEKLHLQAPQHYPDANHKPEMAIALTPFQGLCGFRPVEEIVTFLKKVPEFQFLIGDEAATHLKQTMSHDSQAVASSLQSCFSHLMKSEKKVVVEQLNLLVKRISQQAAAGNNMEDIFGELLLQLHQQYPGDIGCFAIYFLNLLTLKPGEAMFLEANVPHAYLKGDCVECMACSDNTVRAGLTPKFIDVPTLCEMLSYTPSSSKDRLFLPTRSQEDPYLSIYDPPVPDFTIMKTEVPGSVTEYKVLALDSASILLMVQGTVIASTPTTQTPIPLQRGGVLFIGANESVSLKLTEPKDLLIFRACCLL
Description: MPI inhibition at elevated mannose 6-phosphate – biochemical, fluorescence intensity, high mannose 6-phosphate, primary screen (AID 1220).

Assay [3] addresses Serine/threonine-protein kinase 17A (Homo sapiens, UniProt Q9UEE5). The class given is functional.
Assay [4] concerns the target Mast/stem cell growth factor receptor Kit (Homo sapiens, UniProt P10721). It counts as functional.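 Further: KIT entry within a kinase panel assay.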
Assay [5] deals with cGMP-dependent protein kinase 1 (Homo sapiens, UniProt Q13976). It counts as functional.
Assay [6] concerns the target Dual specificity tyrosine-phosphorylation-regulated kinase 4 (Homo sapiens, UniProt Q9NR20). The class given is functional.
Assay [7] concerns the target Mitogen-activated protein kinase 13 (Homo sapiens, UniProt O15264). It counts as functional.
In assay [8] the target is Tyrosine-protein kinase Fer (Homo sapiens, UniProt P16591). The class given is functional.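 Further: FER tested as one member of a kinome panel.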
Chain of Tyrosine-protein kinase Fer (P16591 whole entry): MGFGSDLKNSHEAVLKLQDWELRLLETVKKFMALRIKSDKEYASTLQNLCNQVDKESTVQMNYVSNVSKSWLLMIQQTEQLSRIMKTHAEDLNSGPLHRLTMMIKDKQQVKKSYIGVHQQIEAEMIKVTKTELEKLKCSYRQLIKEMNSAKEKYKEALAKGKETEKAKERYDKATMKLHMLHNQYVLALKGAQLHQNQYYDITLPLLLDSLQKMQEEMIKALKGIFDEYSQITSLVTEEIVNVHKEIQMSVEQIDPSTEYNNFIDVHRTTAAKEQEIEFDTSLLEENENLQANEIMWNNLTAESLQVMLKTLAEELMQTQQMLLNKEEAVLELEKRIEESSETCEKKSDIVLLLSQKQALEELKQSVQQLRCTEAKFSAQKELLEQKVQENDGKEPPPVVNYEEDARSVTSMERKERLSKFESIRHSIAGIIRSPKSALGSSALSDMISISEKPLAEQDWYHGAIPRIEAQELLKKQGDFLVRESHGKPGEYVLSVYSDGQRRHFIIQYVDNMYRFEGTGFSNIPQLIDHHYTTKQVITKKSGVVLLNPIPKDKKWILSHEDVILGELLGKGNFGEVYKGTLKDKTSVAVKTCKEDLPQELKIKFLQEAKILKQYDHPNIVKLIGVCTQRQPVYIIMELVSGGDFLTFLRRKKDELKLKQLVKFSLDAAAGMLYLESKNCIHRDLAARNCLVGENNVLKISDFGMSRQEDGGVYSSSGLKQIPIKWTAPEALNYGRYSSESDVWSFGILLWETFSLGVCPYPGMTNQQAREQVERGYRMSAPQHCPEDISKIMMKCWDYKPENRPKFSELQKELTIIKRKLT
For the next assay, the target named is Focal adhesion kinase 1 (Homo sapiens, UniProt Q05397). It counts as functional.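 Further: measured as one member of a kinome panel.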
Assay [9] deals with Cell division cycle 7-related protein kinase (Homo sapiens, UniProt O00311). It counts as functional.
Assay [10] concerns the target Dual specificity tyrosine-phosphorylation-regulated kinase 3 (Homo sapiens, UniProt O43781). The class given is functional.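 Further: measured as one member of a broad kinase panel.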
The target of assay [11] is MAP kinase-interacting serine/threonine-protein kinase 2 (Homo sapiens, UniProt Q9HBH9). It counts as functional.
In assay [12] the target is Serine/threonine-protein kinase D2 (Homo sapiens, UniProt Q9BZL6). The class given is functional.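 Further: measured against PRKD2 as one member of a kinome-wide kinase profiling panel.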
Assay [13] has as its target Maternal embryonic leucine zipper kinase (Homo sapiens, UniProt Q14680). The class given is functional.
Assay [14] deals with Non-receptor tyrosine-protein kinase TYK2 (Homo sapiens, UniProt P29597). The class given is functional.
Chain of Non-receptor tyrosine-protein kinase TYK2 (P29597 whole entry): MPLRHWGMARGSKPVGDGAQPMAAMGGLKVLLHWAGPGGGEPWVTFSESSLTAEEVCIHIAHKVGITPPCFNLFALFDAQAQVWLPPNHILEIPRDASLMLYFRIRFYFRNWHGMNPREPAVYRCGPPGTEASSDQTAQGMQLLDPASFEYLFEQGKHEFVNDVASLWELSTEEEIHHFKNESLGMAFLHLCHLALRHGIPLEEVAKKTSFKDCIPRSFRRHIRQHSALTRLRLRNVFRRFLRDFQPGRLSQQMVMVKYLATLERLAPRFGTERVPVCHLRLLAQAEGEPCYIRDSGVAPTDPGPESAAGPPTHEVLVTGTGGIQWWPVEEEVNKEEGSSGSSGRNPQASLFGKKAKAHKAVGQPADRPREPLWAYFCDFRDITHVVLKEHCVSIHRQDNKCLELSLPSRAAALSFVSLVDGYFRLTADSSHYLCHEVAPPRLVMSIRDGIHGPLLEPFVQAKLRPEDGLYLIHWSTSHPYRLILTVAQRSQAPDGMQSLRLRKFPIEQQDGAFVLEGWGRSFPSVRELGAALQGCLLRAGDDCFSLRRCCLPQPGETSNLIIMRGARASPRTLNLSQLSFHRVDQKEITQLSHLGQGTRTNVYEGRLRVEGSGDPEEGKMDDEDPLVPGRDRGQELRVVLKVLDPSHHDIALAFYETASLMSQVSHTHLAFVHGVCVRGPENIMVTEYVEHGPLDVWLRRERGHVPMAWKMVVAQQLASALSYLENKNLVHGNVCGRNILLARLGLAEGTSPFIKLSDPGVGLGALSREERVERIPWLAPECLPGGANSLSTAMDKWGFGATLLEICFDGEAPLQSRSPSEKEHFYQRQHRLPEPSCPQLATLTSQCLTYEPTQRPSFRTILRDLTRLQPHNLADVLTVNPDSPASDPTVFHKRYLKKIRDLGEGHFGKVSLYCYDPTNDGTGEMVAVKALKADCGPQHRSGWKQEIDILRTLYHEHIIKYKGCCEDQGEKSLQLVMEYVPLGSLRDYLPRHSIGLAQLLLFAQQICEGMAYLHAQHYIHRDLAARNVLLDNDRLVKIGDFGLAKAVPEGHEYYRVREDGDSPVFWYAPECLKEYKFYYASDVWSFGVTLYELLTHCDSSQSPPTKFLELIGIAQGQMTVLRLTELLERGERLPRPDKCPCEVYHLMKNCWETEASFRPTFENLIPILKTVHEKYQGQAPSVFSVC
Assay [15] concerns the target Calcium/calmodulin-dependent protein kinase type 1 (Homo sapiens, UniProt Q14012). The class given is functional.
Assay [16] addresses Mitogen-activated protein kinase 1 (Homo sapiens, UniProt P28482). It counts as functional.
Assay [17] deals with Serine/threonine-protein kinase PLK1 (Homo sapiens, UniProt P53350). The class given is functional.
Assay [18] deals with Receptor tyrosine-protein kinase erbB-4 (Homo sapiens, UniProt Q15303). The class given is functional.
Assay [19] concerns the target Platelet-derived growth factor receptor alpha (Homo sapiens, UniProt P16234). Description: Navigating the Kinome. Panel member name: PDGFRA. The class given is functional.
For assay [20], the target named is Dual specificity protein kinase CLK2 (Homo sapiens, UniProt P49760). It counts as functional.
In assay [21] the target is Leucine-rich repeat serine/threonine-protein kinase 2 (Homo sapiens, UniProt Q5S007). The class given is functional.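 Further: value from a broad kinome-wide panel profiling study in which LRRK2 was one of the kinases tested.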
Chain of Leucine-rich repeat serine/threonine-protein kinase 2 (Q5S007 whole entry): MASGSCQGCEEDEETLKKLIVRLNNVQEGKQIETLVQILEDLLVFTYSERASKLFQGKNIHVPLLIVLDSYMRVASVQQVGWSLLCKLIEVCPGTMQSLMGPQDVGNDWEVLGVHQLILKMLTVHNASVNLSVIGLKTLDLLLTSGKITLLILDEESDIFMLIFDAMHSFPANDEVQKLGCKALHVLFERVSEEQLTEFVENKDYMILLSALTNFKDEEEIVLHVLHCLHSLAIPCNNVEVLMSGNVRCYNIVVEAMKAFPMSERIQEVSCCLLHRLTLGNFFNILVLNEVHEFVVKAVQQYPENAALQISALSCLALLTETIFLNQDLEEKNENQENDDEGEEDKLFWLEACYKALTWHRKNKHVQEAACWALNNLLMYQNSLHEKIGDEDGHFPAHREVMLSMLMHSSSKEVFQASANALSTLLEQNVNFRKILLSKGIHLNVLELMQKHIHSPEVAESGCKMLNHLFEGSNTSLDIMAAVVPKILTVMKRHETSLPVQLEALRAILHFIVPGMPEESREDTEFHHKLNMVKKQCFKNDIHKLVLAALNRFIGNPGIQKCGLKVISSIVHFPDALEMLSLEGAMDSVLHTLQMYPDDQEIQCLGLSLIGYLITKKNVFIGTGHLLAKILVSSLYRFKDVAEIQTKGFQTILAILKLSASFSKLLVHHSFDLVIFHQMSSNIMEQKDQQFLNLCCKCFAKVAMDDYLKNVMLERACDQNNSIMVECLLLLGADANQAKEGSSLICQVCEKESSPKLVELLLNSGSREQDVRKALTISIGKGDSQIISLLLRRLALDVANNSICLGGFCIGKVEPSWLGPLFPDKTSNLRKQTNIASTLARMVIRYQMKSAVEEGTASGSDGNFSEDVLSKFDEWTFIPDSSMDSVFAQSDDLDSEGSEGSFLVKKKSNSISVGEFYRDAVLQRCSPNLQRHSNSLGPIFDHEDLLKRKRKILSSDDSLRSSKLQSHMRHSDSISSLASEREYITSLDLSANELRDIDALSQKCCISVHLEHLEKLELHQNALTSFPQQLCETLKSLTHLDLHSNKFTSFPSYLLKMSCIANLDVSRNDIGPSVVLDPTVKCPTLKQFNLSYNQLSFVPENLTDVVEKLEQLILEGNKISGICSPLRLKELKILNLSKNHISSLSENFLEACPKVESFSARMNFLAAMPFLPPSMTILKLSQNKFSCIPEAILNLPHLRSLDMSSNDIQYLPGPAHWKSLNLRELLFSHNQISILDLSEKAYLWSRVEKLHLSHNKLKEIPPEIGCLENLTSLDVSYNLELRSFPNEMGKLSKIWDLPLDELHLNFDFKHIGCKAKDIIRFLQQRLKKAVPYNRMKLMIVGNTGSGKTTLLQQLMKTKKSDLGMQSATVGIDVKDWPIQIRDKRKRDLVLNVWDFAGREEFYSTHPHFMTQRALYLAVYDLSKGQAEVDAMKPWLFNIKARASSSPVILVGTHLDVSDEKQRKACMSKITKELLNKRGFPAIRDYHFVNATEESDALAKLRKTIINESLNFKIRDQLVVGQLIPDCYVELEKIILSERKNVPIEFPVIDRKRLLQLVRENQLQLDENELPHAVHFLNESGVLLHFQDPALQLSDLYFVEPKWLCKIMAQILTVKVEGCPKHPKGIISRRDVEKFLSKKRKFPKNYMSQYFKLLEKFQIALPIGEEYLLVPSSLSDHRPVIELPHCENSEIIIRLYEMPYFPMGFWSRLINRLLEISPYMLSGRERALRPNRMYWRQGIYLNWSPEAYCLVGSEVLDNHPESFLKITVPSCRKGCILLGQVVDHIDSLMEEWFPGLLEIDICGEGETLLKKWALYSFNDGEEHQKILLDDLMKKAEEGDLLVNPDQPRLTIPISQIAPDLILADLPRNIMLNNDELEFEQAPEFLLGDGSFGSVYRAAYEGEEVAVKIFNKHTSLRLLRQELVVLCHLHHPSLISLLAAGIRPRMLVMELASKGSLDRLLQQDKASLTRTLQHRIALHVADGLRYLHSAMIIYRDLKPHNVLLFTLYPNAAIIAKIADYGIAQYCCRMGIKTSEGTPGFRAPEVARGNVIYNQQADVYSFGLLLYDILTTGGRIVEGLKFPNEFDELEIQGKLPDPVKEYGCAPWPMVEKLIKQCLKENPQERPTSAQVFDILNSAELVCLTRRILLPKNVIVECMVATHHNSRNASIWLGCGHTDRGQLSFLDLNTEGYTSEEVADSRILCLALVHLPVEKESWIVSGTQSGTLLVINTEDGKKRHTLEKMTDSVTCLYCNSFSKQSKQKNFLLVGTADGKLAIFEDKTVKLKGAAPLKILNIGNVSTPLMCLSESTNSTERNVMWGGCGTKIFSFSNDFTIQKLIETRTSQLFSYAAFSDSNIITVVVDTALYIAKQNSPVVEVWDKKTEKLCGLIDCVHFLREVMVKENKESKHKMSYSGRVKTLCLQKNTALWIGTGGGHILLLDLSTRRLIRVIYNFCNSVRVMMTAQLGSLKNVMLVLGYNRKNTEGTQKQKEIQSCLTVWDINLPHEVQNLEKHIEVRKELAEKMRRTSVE
Assay [22] deals with Platelet-derived growth factor receptor beta (Homo sapiens, UniProt P09619). The class given is functional.
The target of the next assay is LIM domain kinase 1 (Homo sapiens, UniProt P53667). Description: Navigating the Kinome. Panel member name: LIMK1. The class given is functional.
The target in assay [23] is Macrophage-stimulating protein receptor (Homo sapiens, UniProt Q04912). The experiment in a line: Navigating the Kinome. Panel member name: MST1R. The class given is functional.

Chain of Calcium/calmodulin-dependent protein kinase type 1 (Q14012 whole entry): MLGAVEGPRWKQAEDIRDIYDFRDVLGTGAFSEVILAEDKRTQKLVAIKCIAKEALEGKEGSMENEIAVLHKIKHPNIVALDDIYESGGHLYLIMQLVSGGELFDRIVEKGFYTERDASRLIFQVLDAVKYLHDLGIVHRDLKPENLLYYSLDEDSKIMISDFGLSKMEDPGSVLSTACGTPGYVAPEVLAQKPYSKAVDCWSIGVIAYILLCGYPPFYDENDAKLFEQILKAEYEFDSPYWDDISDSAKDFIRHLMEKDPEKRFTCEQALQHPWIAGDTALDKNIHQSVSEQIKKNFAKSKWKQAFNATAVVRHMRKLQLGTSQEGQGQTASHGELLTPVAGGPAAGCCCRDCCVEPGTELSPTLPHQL

One may read the IC50 as the concentration at which inhibition is half-maximal. Consider `COc1ccc(-n2c(NC(=O)c3ccco3)c(C#N)c3nc4ccccc4nc32)cc1`, for which the IC50 in assay [1] is 4070 nM (active); in assay [2], > 50000 nM (not active).

A word on the Ki: it is the dissociation constant of the complex between target and ligand, obtained from inhibition or displacement. For the compound `Cc1n[nH]c2ccc(-c3cncc(OCC(N)Cc4ccc(Cl)c(Cl)c4)c3)cc12` (stereo not given), the Ki is 398 nM (active) in assay [3]; > 1260 nM (inactive) in [4]; 7.94 nM (active) in assay [5]; 1000 nM (active) in [6]; 631 nM (active) in assay [7]; 1260 nM (active) in [8]. The Ki at Focal adhesion kinase 1 was > 1580 nM (inactive); in [9], 12.6 nM (active); in assay [10], 10 nM (active); in [11], 251 nM (active); in assay [12], 31.6 nM (active); in assay [13], 200 nM (active). The Ki in assay [14] was > 2000 nM (inactive); in assay [15], 251 nM (active); in assay [16], 39.8 nM (active); in assay [17], > 7940 nM (inactive); in assay [18], > 3980 nM (inactive).

`[2H]C([2H])([2H])Oc1cccc(C(C)NC(=O)c2sc(-c3ccncc3)nc2C)c1` (stereo not given): the Ki in assay [19] is > 2510 nM (inactive); in assay [20] it was > 3980 nM (inactive); in assay [21] it was > 2510 nM (inactive); in assay [22] it was > 2000 nM (inactive); on LIM domain kinase 1, > 3160 nM (inactive); in [23], > 3980 nM (inactive).
